Experimental data published in ChEMBL document CHEMBL4699637, “Glycosylated Phenols and an Unprecedented Diacid from the Saudi Plant Cissus rotundifolia” (J Nat Prod, 2020).
Active and inactive are the calls of the source. No cut-off for these calls is given here.

Experiments:
[1] = system: Huh-7; experiment: Activation of glucose transporter in human Huh-7 cells assessed as increase in glucose uptake at 800 ug/ml preincubated for 30 mins followed by […] addition and measured after 45 mins by fluorescence assay; type: cell-based; details: dose 800.0 µg/ml, time 75.0 min
[2] = Activation of glucose transporter in human Huh-7 cells assessed as increase in glucose uptake preincubated for 30 mins followed by 2-NDBG addition and measured after 45 mins by fluorescence assay

## O=c1cc(-c2ccc(O)cc2)oc2cc(O)c([C@@H]3O[C@H](CO)[C@@H](O)[C@H](O)[C@H]3O[C@@H]3O[C@H](CO)[C@@H](O)[C@H](O)[C@H]3O)c(O)c12
[1]
  Activity: inactive

## O=c1cc(-c2ccc(O)c(O)c2)oc2c([C@@H]3O[C@H](CO)[C@@H](O)[C@H](O)[C@H]3O[C@@H]3O[C@H](CO)[C@@H](O)[C@@H]3O)c(O)cc(O)c12
[1]
  Activity: inactive

## O=C1OC[C@H]2O[C@@](CO)(O[C@H]3O[C@H](COC(=O)[C@H]4[C@H]1[C@@H](c1ccc(O)cc1)[C@@H]4c1ccc(O)cc1)[C@@H](O)[C@H](O)[C@H]3O)[C@@H](O)[C@@H]2O
[1]
  Activity: inactive

## O=C(O)/C=C\c1ccc(O[C@@H]2O[C@H](CO)[C@@H](O)[C@H](O)[C@H]2O)cc1
[1]
  Activity: inactive

## O=C(/C=C/c1ccc(O)cc1)O[C@@H]1O[C@H](CO)[C@@H](O)[C@H](O)[C@H]1O
[1]; filed as activator
  fold change (FC): 2
[2]
  EC50: 7.7 µM

## CC(/C=C/C(=O)O)=C\C=C\C[C@H](O[C@@H]1O[C@H](CO)[C@@H](O)[C@H](O)[C@H]1O)[C@H](C)CC(=O)O
[1]
  Activity: inactive

## O=c1cc(-c2ccc(O)cc2)oc2c([C@@H]3O[C@H](CO)[C@@H](O)[C@H](O)[C@H]3O[C@@H]3O[C@H](CO)[C@@H](O)[C@@H]3O)c(O)cc(O)c12
[1]
  Activity: inactive
